“Also recorded” adds a separate entry of the source. Where a SMILES comes first, the peptide text is derived from it. [ ]: non-standard residue; d: D form.

Holding throughout (format): binding
The target of assay [1] is T1, E17K mutant PH Domain (PHD) of Akt1 (Homo sapiens, UniProt P31749, E17K).
T1 construct: The first 124 N-terminal amino acids from full length Akt1 were used as the PH Domain DNA; made in house; host or cells: E. coli
The experiment in a line: Streptavidin-agarose immunoprecipitation (pulldown), E17K. To be noted: streptavidin agarose, 1xTBS, western blot band size, in words. The procedure: (§1) Four biligand candidates were chosen based on their hydrophobicity and sequence homology using principal component analysis (FIG. 25). Biligands were synthesized by coupling the 2° ligand onto Rink Amide Resin on the Titan peptide synthesizer. The amide group on the end of the Lys(N3) was capped by shaking the resin with 2 mL acetic anhydride, 2 mL NMP and 0.5 mL DIEA for 3×10 minutes, then washed with NMP. FMOC-Propargylglycine-Otbu (Pra) was clicked onto the Lys(N3) on the 2° ligand by incubating 2 eq of the Pra amino acid with 2 eq CuI and 2 eq ascorbic acid with 1 eq azide on resin in 20% piperidine/NMP for 3 hours. The resin was washed 5×4 mL with a chelating solution of 1 g sodium diethyldithiocarbamate in 20 mL NMP and 1 mL DIEA. The anchor was then built onto the 2° ligand on bead, and an N-terminal PEG5-biotin tag were added. Assays were performed exactly as for the anchor ligands, except for two key differences. The biligand assays were done with 6 ug of GST-tagged PHD protein, instead of the untagged PHD that was used in the anchor pulldowns. The pull-downs were also conducted out of 1% serum in 1×TBS, as opposed to just 1×TBS.
(§2) Pulldown assays were done on Streptavidin Agarose resin from Invitrogen. The resin was incubated with N-terminal biotinylated anchor peptide candidates identified via the ClusterLigand sequence analysis. The anchor candidate coated beads were then incubated with either the wildtype or mutant protein to compare the selectivity of the ligands, as well as the binding ability. The bound protein was eluted and western blotted to compare the amount of protein present for each sample.
(§3) Relative protein band sizes were analyzed to compare binding between the anchor candidates and were used to determine selectivity for either wildtype or mutant PH Domain (FIG. 11). […] Both of these ligands look fairly selective for their respective PH Domain.

Assay [2] deals with T2, wildtype PH Domain (PHD) of Akt1 (Homo sapiens, UniProt P31749).
T2 construct: The first 124 N-terminal amino acids from full length Akt1 were used as the PH Domain DNA; made in house; host or cells: E. coli
Nature of the assay: Streptavidin-agarose immunoprecipitation (pulldown), WT. To be noted: streptavidin agarose, 1xTBS, western blot band size, in words. The procedure: as §1, §2, §3
(In general: Immunoblotting shows a protein as a band on a membrane.)

Assay [3] has as its target T3, E17K 33-mer fragment (6His-tagged) (Homo sapiens, UniProt P31749, E17K/H13K).
T3 construct: made in house; host or cells: chemical synthesis (Fmoc SPPS)
T3 sequence (P31749 1-33 H13K/E17K limits assumed): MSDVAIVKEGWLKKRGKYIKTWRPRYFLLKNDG
Nature of the assay: HPLC-detected immunoprecipitation (pulldown), E17K 33-mer. To be noted: 50 μM epitope, overnight 4° C., guanidine elution, in words. The text has this: The label-modified yleaf (SEQ ID NO: 43) peptide (FIG. 2a and FIG. 12) was subjected to a variety of binding assays against the synthesized WT and E17K 33-mer PHD fragments prepared without the biotin label and alkyne click handle. First, the yleaf (SEQ ID NO: 43) peptide was used in immunoprecipitation assays to pull-down either the WT or E17K mutant 6His-tagged (SEQ ID NO: 4) 33-mer peptide fragments (FIGS. 13 and 14), as opposed to the full-length proteins that were used to initially validate the candidates. Typical immunoprecipitation assays involve western blotting to estimate the amount of protein binding, but 33-mer peptide fragments are not easily quantified on a blot. Because of this, the amount of peptide epitope precipitated in these assays was quantified via injection on an analytical HPLC. These assays further confirmed preferential yleaf (SEQ ID NO: 43) ligand binding to the E17K 33-mer epitope relative to the WT epitope (FIG. 15).
Pulldown assays with the biotinylated anchor and his-tagged 33-mer epitope were performed to verify epitope targeting. […] Because small peptide fragments like the 33-mer epitope are difficult to transfer to and detect on the nitrocellulose membrane as for a traditional Western blot, the amount of binding in these assays was detected via HPLC. […]

T1 sequence (P31749 1-124 E17K): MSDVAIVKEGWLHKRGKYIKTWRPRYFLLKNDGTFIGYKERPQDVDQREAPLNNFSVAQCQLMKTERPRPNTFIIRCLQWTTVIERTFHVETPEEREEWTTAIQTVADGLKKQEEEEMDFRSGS
T2 sequence (P31749 1-124): as the sequence (P31749 1-124 E17K) above, with K17E counted along it

With `CC(C)C[C@@H](NC(=O)[C@H](N)Cc1ccc(O)cc1)C(=O)N[C@H](CCC(=O)O)C(=O)N[C@H](C)C(=O)N[C@H](Cc1ccccc1)C(N)=O` [yleaf] (H-[dY][dL][dE][dA][dF]-NH2; N-terminus assumed), the “pulldown of E17K mutant PH Domain by biotinylated anchor candidates” value in assay [1] is on record as “a distinctively stronger binding to the E17K protein relative to the WT; also recorded: the greatest binding to the mutant”. Further, in assay [2], the “pulldown of wildtype PH Domain by biotinylated anchor candidates” value is “the least binding to the wildtype”. Further, in assay [3], the “amount of E17K 33-mer fragment pulled down (HPLC peak)” value is listed as “preferential; also recorded: pulls down the most of the E17K 33mer fragment”.
